In PubChem BioAssay (NCI):
In brackets after ≈: the same amount, converted by molar mass. Several values for one entry are separate records, joined by “and”; a condition that tells them apart may be missing. Identical values can stand only once.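 Step 1: Grow cells in 96-well plates. Step 2: Expose to compound for 48 hours at 5 concentrations. Step 3: Interpolate endpoints linearly; if unreached, use highest concentration. Here, GI50 denotes the concentration required for 50% inhibition of growth. The concentration for full growth arrest is given as TGI.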

test system: M19-MEL melanoma; assay: inhibition of tumour cell growth, NCI panel, 48 h

Compound | TGI | GI50
C=COCCCOc1ccccc1 | > 100 µM | –
C=C(c1nc2ccc(Cl)cc2[nH]c1=O)C(O)c1ccc(C(O)C(=O)c2nc3ccc(Cl)cc3[nH]c2=O)cc1 (centres undefined) | > 100 µM | –
CC(C)(C)CC(C)(C)c1cc2c(O)c(c1)Cc1cc(C(C)(C)CC(C)(C)C)cc(c1O)Cc1cc(C(C)(C)CC(C)(C)C)cc(c1O)Cc1cc(C(C)(C)CC(C)(C)C)cc(c1O)C2 | > 100 µM | –
Cc1cc([N+](=O)[O-])ccc1Nc1cccc(Cl)c1C | 30.6 µM | –
CC1=C(C(=O)Nc2ccccc2)C(c2ccccc2)C(C(=O)Nc2ccccc2)=C(C)N1 | > 100 µM | –
Cc1nn(-c2ccccc2)c2nc(N3CCOCC3)nnc12 | > 100 µM | –
CNC(=O)N(C)N=NCCCl | > 100 µM | –
CCOc1ccccc1C=C1c2ccccc2C(=O)c2ccccc21 | > 100 µM | –
O=C(CCn1[nH]c(=O)c(Cl)c(Cl)c1=O)NO | > 100 µM | –
[N-]=[N+]=NC12CC3C4CC5CC3C(C1)C(C5)C4C2 | > 100 µM | –
CN(C)c1nc2ccccc2[nH]1 | > 100 µM | –
NNC(=S)N/N=C(\CC1OC(=O)c2ccccc21)c1ccccc1O (centres undefined) | > 100 µM | –
COC(=O)C1=C(O)c2cc(OC)c(OC)cc2C(c2ccc(OC)c(OC)c2)C1 (centres undefined) | > 100 µM | –
O=C1c2cccc(NCCCNCCO)c2C(=O)c2cccc(NCCCNCCO)c21 | 2.24 µM and 3.72 µM | 0.712 µM and 1.8 µM
COC1(OC)CC2C(=O)N(Cc3ccccc3)C1C(S(=O)(=O)c1ccccc1)C2S(=O)(=O)c1ccccc1 (centres undefined) | 23.8 µM | –
Cc1cc(CC(O)c2ccc(Cl)c(Cl)c2)nc(=O)[nH]1 (centres undefined) | > 100 µM | –
COC(=O)C(=Cc1cc(OC)ccc1OC)C(=O)OC | 79.5 µM | –
CC1=NNC(=O)C2CCC(=O)N12 (centres undefined) | > 100 µM | –
CC(C)c1ccccc1NC(=O)CCc1n[nH]c(=S)o1 | > 100 µM | –
CCCCC(C(=O)C(=O)NC1C2CC3CC(C2)CC1C3)C(=O)C(C)C (centres undefined) | > 100 µM | –
COC(=O)c1cc2c(s1)C(=O)c1ccccc1-2 | > 100 µM | –
Cn1c2c(c3ccccc31)C1CCCCCCC1C1C(=O)OC(=O)C21 (centres undefined) | > 100 µM | –
Cc1ccc(S(=O)(=O)N(CC(=O)O)c2ccccc2)cc1 | > 100 µM | –
COc1ccc(C(=O)C(c2ccc(OC)cc2)C2(O)C(=O)Nc3ccc([N+](=O)[O-])cc32)cc1 (centres undefined) | > 100 µM | –
O=C(/C=C/c1ccccc1O)c1ccccc1O | > 100 µM | –
N#CC(N)(C(=O)CCC(=O)Nc1cccc(Cl)c1)c1ccc(Cl)cc1 (centres undefined) | > 100 µM | –
CC(CCC=O)CCOCc1ccccc1 (centres undefined) | > 100 µM | –
S=C(Nc1ccccc1)N(/N=C/C=C/c1ccccc1)c1nnc(-c2ccccc2)c(-c2ccccc2)n1 | > 100 µM | –

test system: MDA-N; assay: inhibition of tumour cell growth, NCI panel, 48 h

Compound | TGI | GI50 [µg/mL]
C=C(c1nc2ccc(Cl)cc2[nH]c1=O)C(O)c1ccc(C(O)C(=O)c2nc3ccc(Cl)cc3[nH]c2=O)cc1 (centres undefined) | > 100 µM | –
COc1cc(C#CC(=O)OC/C=C/c2ccc3c(c2)OCO3)cc(OC)c1OC | 45 µM | –
O/N=C/C1C(OCc2ccccc2)C(OCc2ccccc2)C(OCc2ccccc2)CN1Cc1ccccc1 (centres undefined) | 39.3 µM and > 100 µM | –
O=C(O)C1C2C=CC(O2)C1C(=O)NCc1ccccn1 (centres undefined) | > 100 µM | –
CNC(=O)N(C)N=NCCCl | > 100 µM | –
O=C1c2cccc(NCCCNCCO)c2C(=O)c2cccc(NCCCNCCO)c21 | 3.23 µM | –
NC(=Nc1c([N+](=O)[O-])cnc2ccccc12)N1CCOCC1 | > 100 µM | –
NC(=O)NC1C(c2ccccc2)=C1c1ccccc1 | 34.4 µM | –
CC(CCC=O)CCOCc1ccccc1 (centres undefined) | > 100 µM | –
CN(C)N=Nc1ccc(NC=O)cc1 | > 100 µM | –
COc1ccc2c(c1)CCCC(Br)C2=O (centres undefined) | 9.21 µM | –
COc1cc(N(CCC#N)CCC#N)ccc1/C(N=Nc1ccc([N+](=O)[O-])cc1)=N/NC(=O)c1cc(Br)ccc1O | 126 µg/mL | 43.8 (≈ 70.7 µM)
C=C1C(=O)OC2CCN3CC=C(COC(=O)C(C)(O)C4(CO4)C1C)C23 (centres undefined) | > 100 µM | –
CS(=O)(=O)Nc1ccc2c(c1)oc(=O)c1ccccc12 | > 100 µM | –

test system: RXF-631 renal; assay: inhibition of tumour cell growth, NCI panel, 48 h

Compound | TGI [µM]
CC(C)N(C(=O)C12C3C4C5(C#N)C3C1(C#N)C5C42I)C(C)C (centres undefined) | > 100
COc1ccc2c3c([nH]c2c1[N+](=O)[O-])C(C)=NCC3 | > 100
C=C(c1nc2ccc(Cl)cc2[nH]c1=O)C(O)c1ccc(C(O)C(=O)c2nc3ccc(Cl)cc3[nH]c2=O)cc1 (centres undefined) | > 100
CC(C)(C)CC(C)(C)c1cc2c(O)c(c1)Cc1cc(C(C)(C)CC(C)(C)C)cc(c1O)Cc1cc(C(C)(C)CC(C)(C)C)cc(c1O)Cc1cc(C(C)(C)CC(C)(C)C)cc(c1O)C2 | > 100
Cc1cc([N+](=O)[O-])ccc1Nc1cccc(Cl)c1C | 31.3
Cc1nn(-c2ccccc2)c2nc(N3CCOCC3)nnc12 | > 100
[N-]=[N+]=NC12CC3C4CC5CC3C(C1)C(C5)C4C2 | > 100
NNC(=S)N/N=C(\CC1OC(=O)c2ccccc21)c1ccccc1O (centres undefined) | > 100
COC(=O)C1=C(O)c2cc(OC)c(OC)cc2C(c2ccc(OC)c(OC)c2)C1 (centres undefined) | > 100
COC1(OC)CC2C(=O)N(Cc3ccccc3)C1C(S(=O)(=O)c1ccccc1)C2S(=O)(=O)c1ccccc1 (centres undefined) | 32.6
COC(=O)C(=Cc1cc(OC)ccc1OC)C(=O)OC | 88.3
CC1=NNC(=O)C2CCC(=O)N12 (centres undefined) | > 100
CC(C)c1ccccc1NC(=O)CCc1n[nH]c(=S)o1 | > 100
CCCCC(C(=O)C(=O)NC1C2CC3CC(C2)CC1C3)C(=O)C(C)C (centres undefined) | > 100
COC(=O)c1cc2c(s1)C(=O)c1ccccc1-2 | > 100
Cn1c2c(c3ccccc31)C1CCCCCCC1C1C(=O)OC(=O)C21 (centres undefined) | > 100
S=C(Nc1ccccc1)N(/N=C/C=C/c1ccccc1)c1nnc(-c2ccccc2)c(-c2ccccc2)n1 | > 100

test system: SNB-78 CNS; assay: inhibition of tumour cell growth, NCI panel, 48 h

Compound | TGI
CC(C)N(C(=O)C12C3C4C5(C#N)C3C1(C#N)C5C42I)C(C)C (centres undefined) | > 100 µM
COc1ccc2c3c([nH]c2c1[N+](=O)[O-])C(C)=NCC3 | > 100 µM
C=C(c1nc2ccc(Cl)cc2[nH]c1=O)C(O)c1ccc(C(O)C(=O)c2nc3ccc(Cl)cc3[nH]c2=O)cc1 (centres undefined) | > 100 µM
CC(C)(C)CC(C)(C)c1cc2c(O)c(c1)Cc1cc(C(C)(C)CC(C)(C)C)cc(c1O)Cc1cc(C(C)(C)CC(C)(C)C)cc(c1O)Cc1cc(C(C)(C)CC(C)(C)C)cc(c1O)C2 | > 100 µM
CC1=C(C(=O)Nc2ccccc2)C(c2ccccc2)C(C(=O)Nc2ccccc2)=C(C)N1 | > 100 µM
Cc1nn(-c2ccccc2)c2nc(N3CCOCC3)nnc12 | > 100 µM
CCOc1ccccc1C=C1c2ccccc2C(=O)c2ccccc21 | > 100 µM
[N-]=[N+]=NC12CC3C4CC5CC3C(C1)C(C5)C4C2 | > 100 µM
NNC(=S)N/N=C(\CC1OC(=O)c2ccccc21)c1ccccc1O (centres undefined) | > 100 µM
COC(=O)C1=C(O)c2cc(OC)c(OC)cc2C(c2ccc(OC)c(OC)c2)C1 (centres undefined) | > 100 µM
O=C1c2cccc(NCCCNCCO)c2C(=O)c2cccc(NCCCNCCO)c21 | 6.7 µM and 17.1 µM
COC1(OC)CC2C(=O)N(Cc3ccccc3)C1C(S(=O)(=O)c1ccccc1)C2S(=O)(=O)c1ccccc1 (centres undefined) | 39.1 µM
Cc1cc(CC(O)c2ccc(Cl)c(Cl)c2)nc(=O)[nH]1 (centres undefined) | > 100 µM
COC(=O)C(=Cc1cc(OC)ccc1OC)C(=O)OC | > 100 µM
CC1=NNC(=O)C2CCC(=O)N12 (centres undefined) | > 100 µM
CC(C)c1ccccc1NC(=O)CCc1n[nH]c(=S)o1 | > 100 µM
CCCCC(C(=O)C(=O)NC1C2CC3CC(C2)CC1C3)C(=O)C(C)C (centres undefined) | > 100 µM
COC(=O)c1cc2c(s1)C(=O)c1ccccc1-2 | > 100 µM
Cn1c2c(c3ccccc31)C1CCCCCCC1C1C(=O)OC(=O)C21 (centres undefined) | > 100 µM
COc1ccc(C(=O)C(c2ccc(OC)cc2)C2(O)C(=O)Nc3ccc([N+](=O)[O-])cc32)cc1 (centres undefined) | > 100 µM
O=C(/C=C/c1ccccc1O)c1ccccc1O | > 100 µM
N#CC(N)(C(=O)CCC(=O)Nc1cccc(Cl)c1)c1ccc(Cl)cc1 (centres undefined) | > 100 µM
CC(CCC=O)CCOCc1ccccc1 (centres undefined) | > 100 µM
S=C(Nc1ccccc1)N(/N=C/C=C/c1ccccc1)c1nnc(-c2ccccc2)c(-c2ccccc2)n1 | > 100 µM

test system: XF 498 CNS; assay: inhibition of tumour cell growth, NCI panel, 48 h

Compound | TGI | GI50
CC(C)N(C(=O)C12C3C4C5(C#N)C3C1(C#N)C5C42I)C(C)C (centres undefined) | > 100 µM | –
C=COCCCOc1ccccc1 | > 100 µM | –
C=C(c1nc2ccc(Cl)cc2[nH]c1=O)C(O)c1ccc(C(O)C(=O)c2nc3ccc(Cl)cc3[nH]c2=O)cc1 (centres undefined) | > 100 µM | –
CC(C)(C)CC(C)(C)c1cc2c(O)c(c1)Cc1cc(C(C)(C)CC(C)(C)C)cc(c1O)Cc1cc(C(C)(C)CC(C)(C)C)cc(c1O)Cc1cc(C(C)(C)CC(C)(C)C)cc(c1O)C2 | > 100 µM | –
Cc1nn(-c2ccccc2)c2nc(N3CCOCC3)nnc12 | > 100 µM | –
O=C(CCn1[nH]c(=O)c(Cl)c(Cl)c1=O)NO | > 100 µM | –
[N-]=[N+]=NC12CC3C4CC5CC3C(C1)C(C5)C4C2 | > 100 µM | –
NNC(=S)N/N=C(\CC1OC(=O)c2ccccc21)c1ccccc1O (centres undefined) | > 100 µM | –
COC(=O)C1=C(O)c2cc(OC)c(OC)cc2C(c2ccc(OC)c(OC)c2)C1 (centres undefined) | > 100 µM | –
O=C1c2cccc(NCCCNCCO)c2C(=O)c2cccc(NCCCNCCO)c21 | 2.4 µM and 7.26 µM | 0.827 µM and 2.41 µM
Cc1cc(CC(O)c2ccc(Cl)c(Cl)c2)nc(=O)[nH]1 (centres undefined) | 41.3 µM | –
COC(=O)C(=Cc1cc(OC)ccc1OC)C(=O)OC | 47.4 µM | –
CC(C)c1ccccc1NC(=O)CCc1n[nH]c(=S)o1 | > 100 µM | –
CCCCC(C(=O)C(=O)NC1C2CC3CC(C2)CC1C3)C(=O)C(C)C (centres undefined) | > 100 µM | –
Cn1c2c(c3ccccc31)C1CCCCCCC1C1C(=O)OC(=O)C21 (centres undefined) | 93.1 µM | –
N#CC(N)(C(=O)CCC(=O)Nc1cccc(Cl)c1)c1ccc(Cl)cc1 (centres undefined) | > 100 µM | –
CC(CCC=O)CCOCc1ccccc1 (centres undefined) | > 100 µM | –
S=C(Nc1ccccc1)N(/N=C/C=C/c1ccccc1)c1nnc(-c2ccccc2)c(-c2ccccc2)n1 | > 100 µM | –
